{"source": "patent US11746100B2", "about": "(GLOBAL BLOOD THERAPEUTICS, INC., priority 2020, dated 2023)", "data": [{"target": "T1, human ferroportin (Homo sapiens, UniProt Q9NP59)", "T1 construct": "luciferase reporter (read with the Nano-Glo Luciferase Assay System); expressed in transfected cells; host or cells: CHO cells, stably transfected, expression induced with doxycycline", "T1 sequence (Q9NP59 1-571)": "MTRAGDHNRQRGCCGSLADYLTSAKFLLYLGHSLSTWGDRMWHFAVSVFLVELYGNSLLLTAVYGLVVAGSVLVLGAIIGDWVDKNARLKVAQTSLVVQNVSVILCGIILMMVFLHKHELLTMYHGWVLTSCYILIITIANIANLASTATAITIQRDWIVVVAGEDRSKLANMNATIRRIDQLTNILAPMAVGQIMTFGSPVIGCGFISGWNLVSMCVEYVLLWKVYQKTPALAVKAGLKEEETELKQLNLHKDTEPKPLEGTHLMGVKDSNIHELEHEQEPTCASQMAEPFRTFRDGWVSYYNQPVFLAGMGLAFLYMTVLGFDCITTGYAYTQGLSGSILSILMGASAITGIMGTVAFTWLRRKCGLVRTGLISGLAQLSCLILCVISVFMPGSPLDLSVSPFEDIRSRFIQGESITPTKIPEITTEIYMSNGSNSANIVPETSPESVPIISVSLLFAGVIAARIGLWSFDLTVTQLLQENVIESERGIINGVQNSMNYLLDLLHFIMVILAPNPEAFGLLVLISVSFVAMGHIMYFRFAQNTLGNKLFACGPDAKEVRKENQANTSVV", "test": "Biological in-vitro ferroportin internalization assay (luciferase reporter)", "assay_type": "cell-based", "details": "average pEC50; stably-transfected CHO cell line expressing human ferroportin tagged to a luciferase reporter; 6 h incubation with test compound", "summary_of_the_method": "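Read-out is Nano-Glo luciferase signal after 6 h compound exposure, with average pEC50 derived. Cells are a stable CHO line carrying luciferase-tagged human ferroportin, pre-loaded 24 h with ferric ammonium citrate and doxycycline-induced for 24 h.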", "values": [{"smiles": "CN(CC(=O)NC(C)(C)C)c1nc(-c2cc(OCCN3C[C@@H]4C[C@H]3CO4)ccn2)nc2c1CCC2", "note": "[Compound 461, N-tert-butyl-2-{methyl[2-(4-{2-[(1S,4S)-2-oxa-5-azabicyclo[2.2.1]heptan-5-yl]ethoxy}pyridin-2-yl)-5H,6H,7H-cyclopenta[d]pyrimidin-4-yl]amino}acetamide]", "pEC50": 8.3}, {"smiles": "CN(CC(=O)N1CCC(F)(F)CC1)c1nc(-c2cc(OCCO)ccn2)nc2c1CCC2", "note": "[Compound 355, 1-(4,4-difluoropiperidin-1-yl)-2-({2-[4-(2-hydroxyethoxy)pyridin-2-yl]-5H,6H,7H-cyclopenta[d]pyrimidin-4-yl}(methyl)amino)ethan-1-one]", "pEC50": 7.7}, {"smiles": "O=C(CNc1nc(-c2ccccn2)nc2c1CCC2)Nc1ccc2cccnc2c1", "note": "[Compound 7, 2-{[2-(pyridin-2-yl)-5H,6H,7H-cyclopenta[d]pyrimidin-4-yl]amino}-N-(quinolin-7-yl)acetamide]", "pEC50": 6.6}, {"smiles": "COc1ccc(NC(=O)CN(C)c2nc(-c3cn(C)cn3)nc3c2CCC3)nc1", "note": "[Compound 190, N-(5-methoxypyridin-2-yl)-2-{methyl[2-(1-methyl-1H-imidazol-4-yl)-5H,6H,7H-cyclopenta[d]pyrimidin-4-yl]amino}acetamide]", "pEC50": 7.8}, {"smiles": "C[C@H](CN(C)C)Oc1ccnc(-c2nc3c(c(N(C)CC(=O)NC4(C(F)(F)F)CC4)n2)CCC3)c1", "note": "[Compound 486, 2-{[2-(4-{[(2R)-1-(dimethylamino)propan-2-yl]oxy}pyridin-2-yl)-5H,6H,7H-cyclopenta[d]pyrimidin-4-yl](methyl)amino}-N-[1-(trifluoromethyl)cyclopropyl]acetamide]", "pEC50": 7.4}, {"smiles": "COc1ccnc(-c2nc3c(c(N(C)CC(=O)Nc4ccc(OC)nc4)n2)CCC3)c1", "note": "[Compound 151, 2-{[2-(4-methoxypyridin-2-yl)-5H,6H,7H-cyclopenta[d]pyrimidin-4-yl](methyl)amino}-N-(6-methoxypyridin-3-yl)acetamide]", "pEC50": 8.1}, {"smiles": "C[C@@H](CN(C)C)Oc1ccnc(-c2nc3c(c(N(C)CC(=O)NC(C)(C)C)n2)CCC3)c1", "note": "[Compound 402, N-tert-butyl-2-{[2-(4-{[(2S)-1-(dimethylamino)propan-2-yl]oxy}pyridin-2-yl)-5H,6H,7H-cyclopenta[d]pyrimidin-4-yl](methyl)amino}acetamide]", "pEC50": 7.8}, {"smiles": "COc1cccc(NC(=O)CN(C)c2nc(-c3cc(OCCO)ccn3)nc3c2CCC3)c1", "note": "[Compound 279, 2-({2-[4-(2-hydroxyethoxy)pyridin-2-yl]-5H,6H,7H-cyclopenta[d]pyrimidin-4-yl}(methyl)amino)-N-(3-methoxyphenyl)acetamide]", "pEC50": 8.2}, {"smiles": "[2H]C([2H])([2H])N(CCOc1ccnc(-c2nc3c(c(N(C)CC(=O)NC(C)(C)C)n2)CCC3)c1)C([2H])([2H])[2H]", "note": "[Compound 508, N-tert-butyl-2-{[2-(4-{2-[di(2H3)methylamino]ethoxy}pyridin-2-yl)-5H,6H,7H-cyclopenta[d]pyrimidin-4-yl](methyl)amino}acetamide]", "pEC50": 7.6}, {"smiles": "COc1ccnc(-c2nc3c(c(N(C)CC(=O)N[C@H]4CCOC4)n2)CCC3)c1", "note": "[Compound 371, 2-{[2-(4-methoxypyridin-2-yl)-5H,6H,7H-cyclopenta[d]pyrimidin-4-yl](methyl)amino}-N-[(3S)-oxolan-3-yl]acetamide]", "pEC50": 7.5}, {"smiles": "CN(CC(=O)NC(C)(C)C)c1nc(-c2ccn(C)n2)nc2c1CCC2", "note": "[Compound 160, N-tert-butyl-2-{methyl[2-(1-methyl-1H-pyrazol-3-yl)-5H,6H,7H-cyclopenta[d]pyrimidin-4-yl]amino}acetamide]", "pEC50": 5.2}, {"smiles": "C[C@H](C(=O)Nc1cnn(C)c1)N(C)c1nc(-c2cc(OCCO)ccn2)nc2c1CCC2", "note": "[Compound 310, (2R)-2-({2-[4-(2-hydroxyethoxy)pyridin-2-yl]-5H,6H,7H-cyclopenta[d]pyrimidin-4-yl}(methyl)amino)-N-(1-methyl-1H-pyrazol-4-yl)propanamide]", "pEC50": 7.4}, {"smiles": "CN1CC(Oc2ccnc(-c3nc4c(c(N(C)CC(=O)NC(C)(C)C)n3)CCC4)c2)C1", "note": "[Compound 416, N-tert-butyl-2-[methyl(2-{4-[(1-methylazetidin-3-yl)oxy]pyridin-2-yl}-5H,6H,7H-cyclopenta[d]pyrimidin-4-yl)amino]acetamide]", "pEC50": 8}, {"smiles": "CN(CC(=O)Nc1ccc(Cl)cc1)c1nc(-c2cc(OCCO)ccn2)nc2c1CCC2", "note": "[Compound 339, N-(4-chloropehnyl)-2-({2-[4-(2-hydroxyethoxy)pyridin-2-yl]-5H,6H,7H-cyclopenta[d]pyrimidin-4-yl}(methyl)amino)acetamide]", "pEC50": 8.2}, {"smiles": "COc1cccc(NC(=O)CN(C)c2nc(-c3cn(C)cn3)nc3c2CCC3)c1", "note": "[Compound 272, N-(3-methoxyphenyl)-2-{methyl[2-(1-methyl-1H-imidazol-4-yl)-5H,6H,7H-cyclopenta[d]pyrimidin-4-yl]amino}acetamide]", "pEC50": 7.8}, {"smiles": "C[C@H]1C[C@@H](Oc2ccnc(-c3nc4c(c(N(C)CC(=O)NC(C)(C)C)n3)CCC4)c2)CN1C", "note": "[Compound 502, N-tert-butyl-2-{[2-(4-{[(3R,5S)-1,5-dimethylpyrrolidin-3-yl]oxy}pyridin-2-yl)-5H,6H,7H-cyclopenta[d]pyrimidin-4-yl](methyl)amino}acetamide]", "pEC50": 8.2}, {"smiles": "CN(C)CCOc1ccnc(-c2nc3c(c(N(CC(=O)NC(C)(C)C)CC(F)(F)F)n2)CCC3)c1", "note": "[Compound 470, N-tert-butyl-2-[(2-{4-[2-(dimethylamino)ethoxy]pyridin-2-yl}-5H,6H,7H-cyclopenta[d]pyrimidin-4-yl)(2,2,2-trifluoroethyl)amino]acetamide]", "pEC50": 7.2}, {"smiles": "COc1ccnc(-c2nc3c(c(N(C)[C@H](C)C(=O)NC4CCCCC4)n2)CCC3)c1", "note": "[Compound 119, (2R)—N-cyclohexyl-2-{[2-(4-methoxypyridin-2-yl)-5H,6H,7H-cyclopenta[d]pyrimidin-4-yl](methyl)amino}propanamide]", "pEC50": 7.7}, {"smiles": "COc1ccnc(-c2nc3c(c(N(C)CC(=O)Nc4cnn(C)c4)n2)CCC3)c1", "note": "[Compound 154, 2-{[2-(4-methoxypyridin-2-yl)-5H,6H,7H-cyclopenta[d]pyrimidin-4-yl](methyl)amino}-N-(1-methyl-1H-pyrazol-4-yl)acetamide]", "pEC50": 7.4}, {"smiles": "COc1ccnc(-c2nc3c(c(N(C)CC(=O)NC4(C)CCCC4)n2)CCC3)c1", "note": "[Compound 155, 2-{[2-(4-methoxypyridin-2-yl)-5H,6H,7H-cyclopenta[d]pyrimidin-4-yl](methyl)amino}-N-(1-methylcyclopentyl)acetamide]", "pEC50": 7.5}, {"smiles": "C[C@H](C(=O)Nc1ccnnc1)N(C)c1nc(-c2cc3ccccc3cn2)nc2c1CCC2", "note": "[Compound 273, (2R)-2-{[2-(isoquinolin-3-yl)-5H,6H,7H-cyclopenta[d]pyrimidin-4-yl](methyl)amino}-N-(pyridazin-4-yl)propanamide]", "pEC50": 7.8}, {"smiles": "CC[C@@](C)(O)COc1ccnc(-c2nc3c(c(N(C)CC(=O)NC(C)(C)C)n2)CCC3)c1", "note": "[Compound 445, N-tert-butyl-2-[(2-{4-[(2R)-2-hydroxy-2-methylbutoxy]pyridin-2-yl}-5H,6H,7H-cyclopenta[d]pyrimidin-4-yl)(methyl)amino]acetamide]", "pEC50": 8.3}]}]}
